Patent US20240182480A1, “5-HT2A AND/OR 5-HT2C RECEPTOR AGONISTS” (priority 2021, published 2024)
pEC50: −log10 of the molar value. Where two headings read alike, the source gives them in different places.

Key:
[1] = biological target: T1, 5-HT2A (Homo sapiens, UniProt P28223); experiment: cell-based; details: FLIPR calcium assay, agonist mode
T1 construct: expressed in transfected cells; the paragraph before it names a CHO-K1-mt aequorin Gα16 cell line

[2] = biological target: T2, 5-HT2B (Homo sapiens, UniProt P41595); experiment: cell-based; details: FLIPR calcium assay, agonist mode
T2 construct: expressed in transfected cells; the paragraph before it names a CHO-K1-mt aequorin Gα16 cell line
T2 sequence (P41595 whole entry): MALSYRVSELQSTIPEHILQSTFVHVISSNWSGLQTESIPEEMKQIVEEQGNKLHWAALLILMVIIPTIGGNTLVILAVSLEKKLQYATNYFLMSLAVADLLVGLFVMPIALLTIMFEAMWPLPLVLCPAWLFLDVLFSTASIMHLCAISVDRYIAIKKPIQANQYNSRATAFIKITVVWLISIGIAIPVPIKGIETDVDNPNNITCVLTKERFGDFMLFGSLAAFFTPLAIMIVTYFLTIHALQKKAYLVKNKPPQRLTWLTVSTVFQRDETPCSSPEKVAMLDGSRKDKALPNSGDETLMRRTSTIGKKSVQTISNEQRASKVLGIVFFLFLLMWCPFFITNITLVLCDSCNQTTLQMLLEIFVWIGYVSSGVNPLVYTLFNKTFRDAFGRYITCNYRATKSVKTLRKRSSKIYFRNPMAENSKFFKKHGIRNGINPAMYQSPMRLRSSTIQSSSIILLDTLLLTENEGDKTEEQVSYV

[3] = biological target: T3, 5-HT2C (Homo sapiens, UniProt P28335); experiment: 5-HT2C pharmacological screening by FLIPR assay in agonist mode; type: cell-based
T3 construct: expressed in transfected cells; the paragraph before it names a CHO-K1-mt aequorin Gα16 cell line
T3 sequence (P28335 33-458): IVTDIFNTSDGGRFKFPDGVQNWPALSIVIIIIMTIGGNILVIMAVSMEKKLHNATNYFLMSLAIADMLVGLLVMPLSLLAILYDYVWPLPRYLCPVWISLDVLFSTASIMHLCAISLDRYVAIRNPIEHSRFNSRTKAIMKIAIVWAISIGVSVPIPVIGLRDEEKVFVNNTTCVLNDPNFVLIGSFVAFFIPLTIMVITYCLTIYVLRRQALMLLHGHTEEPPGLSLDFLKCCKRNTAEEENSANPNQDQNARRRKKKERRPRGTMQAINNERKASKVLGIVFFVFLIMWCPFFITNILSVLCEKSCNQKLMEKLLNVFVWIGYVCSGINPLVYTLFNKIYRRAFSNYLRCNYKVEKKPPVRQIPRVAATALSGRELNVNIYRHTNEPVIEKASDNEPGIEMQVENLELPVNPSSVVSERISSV

[4] = 5-HT2A (EC50, % max activity), class symbols
[5] = 5-HT2A, (EC50, % max activity), approximate values
[6] = 5-HT2B (EC50, % max activity), class symbols
[7] = 5-HT2B, (EC50, % max activity), approximate values
[8] = FLIPR calcium assay, agonist mode, approximate values, read-out: 5-HT2C, (EC50, % max activity)
[9] = FLIPR calcium assay, agonist mode, class symbols, read-out: 5-HT2C (EC50, % max activity)
[10] = class symbols, read-out: 5-HT2A (EC50, % max activity)
[11] = class symbols, read-out: 5-HT2B (EC50, % max activity)

T1 sequence (P28223 whole entry): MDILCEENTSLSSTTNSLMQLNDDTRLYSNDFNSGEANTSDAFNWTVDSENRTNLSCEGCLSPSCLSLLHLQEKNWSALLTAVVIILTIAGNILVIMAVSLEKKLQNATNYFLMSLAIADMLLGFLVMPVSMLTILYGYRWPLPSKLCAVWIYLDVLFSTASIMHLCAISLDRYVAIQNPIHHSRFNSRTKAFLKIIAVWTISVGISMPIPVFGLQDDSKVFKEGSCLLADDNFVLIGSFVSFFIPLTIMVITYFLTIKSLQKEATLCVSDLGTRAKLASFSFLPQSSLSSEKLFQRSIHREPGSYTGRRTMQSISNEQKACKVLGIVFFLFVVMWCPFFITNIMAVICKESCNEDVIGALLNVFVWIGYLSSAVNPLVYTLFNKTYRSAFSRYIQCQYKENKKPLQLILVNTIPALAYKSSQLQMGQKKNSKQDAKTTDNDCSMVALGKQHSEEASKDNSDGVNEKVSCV

Row | SMILES | pEC50 [1, 10] | pEC50 [2, 11] | pEC50 [1, 4] | pEC50 [2, 6] | other results
1 | c1nc2c(nc1N1CCCOCC1)CCNCC2 [Example 1, 4-(6,7,8,9-tetrahydro-5H-pyrazino[2,3-d]azepin-2-yl)-1,4-oxazepane] |  |  | 5.22 to 6.00 | < 5.22 | pEC50 [1, 5]: ~5.70; pEC50 [2, 7]: < 4.52; pEC50 [3, 8]: ~7.00; pEC50 [3, 9]: > 6.70
2 | FC1(F)CCN(c2cnc3c(n2)CCNCC3)CC1 [Example 2, 2-(4,4-difluoropiperidin-1-yl)-6,7,8,9-tetrahydro-5H-pyrazino[2,3-d]azepine] |  |  | 6.00 to 6.70 | 5.22 to 6.00 | pEC50 [1, 5]: ~6.05; pEC50 [2, 7]: ~5.40; pEC50 [3, 8]: ~6.70; pEC50 [3, 9]: > 6.70
3 | FC1CCN(c2cnc3c(n2)CCNCC3)CC1 [Example 4, 2-(4-fluoropiperidin-1-yl)-6,7,8,9-tetrahydro-5H-pyrazino[2,3-d]azepine] | 5.22 to 6.00 | 6.00 to 6.70 |  |  | 
4 | c1ccc(COc2cnc3c(n2)CCNCC3)cc1 [Example 18, 2-(benzyloxy)-6,7,8,9-tetrahydro-5H-pyrazino[2,3-d]azepine] |  |  | < 5.22 | > 6.70 | 
5 | Clc1cnc2c(n1)CCNCC2 [Example 20, 2-chloro-6,7,8,9-tetrahydro-5H-pyrazino[2,3-d]azepine] |  |  | < 5.22 | < 5.22 | 
6 | CN1CCc2[nH]c3ncccc3c2CC1 [Example 22, 7-methyl-5,6,7,8,9,10-hexahydropyrido[3′,2′:4,5]pyrrolo[2,3-d]azepine] |  |  | < 5.22 | < 5.22 | pEC50 ([3]; 5-HT2C (EC50, % max activity, FLIPR calcium assay, agonist mode), class symbols): < 5.22

Second part, led by results:

Row | pEC50 [1, 10] | pEC50 [2, 11] | SMILES | pEC50 [1, 4] | pEC50 [2, 6] | other results
7 | < 5.22 | 6.00 to 6.70 | CN(C)c1cnc2c(n1)CCNCC2 [Example 15, N,N-dimethyl-6,7,8,9-tetrahydro-5H-pyrazino[2,3-d]azepin-2-amine] |  |  | 
8 | < 5.22 | 6.00 to 6.70 | c1nc2c(nc1N1CCCC1)CCNCC2 [Example 16, 2-(pyrrolidin-1-yl)-6,7,8,9-tetrahydrahydro-5H-pyrazino[2,3-d]azepine] |  |  | 
9 | < 5.22 | < 5.22 | FC1CN(c2cnc3c(n2)CCNCC3)C1 [Example 17, 2-(3-fluoroazetidin-1-yl)-6,7,8,9-tetrahydro-5H-pyrazino[2,3-d]azepine] |  |  | 
10 | < 5.22 | < 5.22 | Nc1cnc2c(n1)CCNCC2 [Example 19, 6,7,8,9-tetrahydro-5H-pyrazino[2,3-d]azepin-2-amine] |  |  | 
